According to patent publication US11760766B2, “Ionic liquids containing quaternary ammonium and phosphonium cations, and their use as environmentally friendly lubricant additives” (UT-Battelle, LLC, priority 2020, dated 2023):
Where two headings read alike, the source gives them in different places.

Experiments:
Ceriodaphnia dubia = conditions: in vivo
[1] = Solubility of ILs in base oils, by centrifuging the oil-additive blends; conditions: centrifuged 13,000 rpm 5 min

Compound	Survival rate of Daphnia (Ceriodaphnia dubia)	Total reproductive output (number of neonates) in surviving Daphnia (Ceriodaphnia dubia)	also measured
CCCCOP(=O)([O-])OCCCC.CCCC[N+](C)(CCCC)CCCC [[N4441] [DBP]]	> 70%		
CCCC[P+](CC)(CCCC)CCCC [[P4442][DEP], Tributyl(ethyl)phosphonium diethyl phosphate]			Number of surviving Daphnia (Ceriodaphnia dubia; Ceriodaphnia dubia): 10; Survival rate of Daphnia (Ceriodaphnia dubia; Ceriodaphnia dubia): > 70%; Mortality / survival of Daphnia, in words (Ceriodaphnia dubia): did not cause any mortality; IL's solubility in base oil ([1]; OSP-32): >5% wt. %; IL's solubility in base oil ([1]; PAG (50-HB-170)): >5% wt. %
tributyl(methyl)ammonium dibutyl phosphate [[N4441][DBP]]			Mortality / survival of Daphnia, in words (Ceriodaphnia dubia): did not cause any mortality
CCCCOP(=O)(O)OCCCC.CN1CCCCC1 [[NMPPR] [DBP]]	70-90%		
CCCCOP(=O)(O)OCCCC.CN1CCOCC1 [[NMM][DBP]]	> 70%		
CCCCOP(=O)(O)OCCCC.CN1CCCCC1 [[NMPPR][DBP]]	> 70%		
Tetraoctylammonium octadecanoate [[N8888][C17H35COO]]		0	Mortality / survival of Daphnia, in words (Ceriodaphnia dubia): No Daphnia survived for three days
CCCCCCN(CCCCCC)CCCCCC.CCCCOP(=O)(O)OCCCC [[N666H][DBP]]	10%		
CCCCOP(=O)(O)OCCCC.CN1CCOCC1 [[NMM] [DBP]]	70-90%		
CCCCCCCCN(CCCCCCCC)CCCCCCCC.CCCCOP(=O)(O)OCCCC [[N888H][DBP]]	0%	0	
Tetraoctylphosphonium bis(2-ethylhexyl) phosphate [[P8888][DEHP], reference compound]		0	Time of exposure after which all Daphnia were killed (Ceriodaphnia dubia): one
Trioctylammonium di(2-ethylhexyl)phosphate [[N888H][DEHP], reference compound]		0	
